Laboratory results: patent publication US12486274B2, “Substituted pyrazolo-pyrimidines and uses thereof” (Verge Analytics, Inc., priority 2020, dated 2025)

What follows are molecules tested against Full length human recombinant PIKFYVE (Homo sapiens (Human), UniProt Q9Y2I7) (assay: Inhibition of PIKfyve (microfluidic electrophoresis kinase assay)). Conditions: 2 nM enzyme, PI3P/PS substrate, 3 h at room temperature, 12 concentrations.
Format: biochemical
Procedure: Full length human recombinant PIKFYVE expressed in baculovirus expression system as N-terminal GST-fusion protein (265 kDa) was obtained from Carna Biosciences (Kobe, Japan). The kinase substrate was prepared by mixing and sonicating fluorescently-labeled phosphatidylinositol 3-phosphate (PI3P) with phospho-L-serine (PS) at a 1:10 ratio in 50 mM HEPES buffer pH7.5.
The kinase reactions were assembled in 384-well plates (Greiner) in a total volume of […] as follows. Kinase protein was pre-diluted in an assay buffer comprising 25 mM HEPES, pH 7.5, 1 mM DTT, 2.5 mM MgCl2, and 2.5 mM MnCl2, and 0.005% Triton X-100, and dispensed into a 384-well plate (10 μL per well). Test compounds were serially pre-diluted in DMSO and added to the protein samples by acoustic dispensing (Labcyte Echo). The concentration of DMSO was equalized to 1% in all samples. All test compounds were tested at 12 concentrations. Apilimod was used as a reference compound and was tested in identical manner in each assay plate. Control samples (0%-inhibition, in the absence of inhibitor, DMSO only) and 100%-inhibition (in the absence of enzyme) were assembled in replicates of four and were used to calculate %-inhibition in the presence of compounds. The reactions were initiated by addition of 10 μL of 2× PI3P/PS substrate supplemented with ATP. The final concentration of enzyme was 2 nM, the final concentration of ATP was 10 mM, and the final concentration of PI3P/PS substrate was 1 μM (PI3P). The kinase reactions were allowed to proceed for 3 h at room temperature. Following incubation, the reactions were quenched by addition of […] of termination buffer (100 mM HEPES, pH 7.5, 0.01% Triton X-100, 20 mM EDTA). Terminated plates were analyzed on a microfluidic electrophoresis instrument (Caliper LabChip® 3000, Caliper Life Sciences/Perkin Elmer). The change in the relative fluorescence intensity of the PI (3) P substrate and PI (3,5) P product peaks was measured. The activity in each test sample was determined as the product to sum ratio (PSR): P/(S+P), where P is the peak height of the product, and S is the peak height of the substrate. Percent inhibition (Pinh) was determined using the following equation: Pinh=(PSR0% inh−PSRcompound)/(PSR0% inh−PSR100% inh)*100 in which PSRcompound is the product/sum ratio in the presence of compound, PSR0% inh is the product/sum ratio in the absence of compound, and the PSR100% inh is the product/sum ratio in the absence of the enzyme.

Chain of Full length human recombinant PIKFYVE (Q9Y2I7 whole entry): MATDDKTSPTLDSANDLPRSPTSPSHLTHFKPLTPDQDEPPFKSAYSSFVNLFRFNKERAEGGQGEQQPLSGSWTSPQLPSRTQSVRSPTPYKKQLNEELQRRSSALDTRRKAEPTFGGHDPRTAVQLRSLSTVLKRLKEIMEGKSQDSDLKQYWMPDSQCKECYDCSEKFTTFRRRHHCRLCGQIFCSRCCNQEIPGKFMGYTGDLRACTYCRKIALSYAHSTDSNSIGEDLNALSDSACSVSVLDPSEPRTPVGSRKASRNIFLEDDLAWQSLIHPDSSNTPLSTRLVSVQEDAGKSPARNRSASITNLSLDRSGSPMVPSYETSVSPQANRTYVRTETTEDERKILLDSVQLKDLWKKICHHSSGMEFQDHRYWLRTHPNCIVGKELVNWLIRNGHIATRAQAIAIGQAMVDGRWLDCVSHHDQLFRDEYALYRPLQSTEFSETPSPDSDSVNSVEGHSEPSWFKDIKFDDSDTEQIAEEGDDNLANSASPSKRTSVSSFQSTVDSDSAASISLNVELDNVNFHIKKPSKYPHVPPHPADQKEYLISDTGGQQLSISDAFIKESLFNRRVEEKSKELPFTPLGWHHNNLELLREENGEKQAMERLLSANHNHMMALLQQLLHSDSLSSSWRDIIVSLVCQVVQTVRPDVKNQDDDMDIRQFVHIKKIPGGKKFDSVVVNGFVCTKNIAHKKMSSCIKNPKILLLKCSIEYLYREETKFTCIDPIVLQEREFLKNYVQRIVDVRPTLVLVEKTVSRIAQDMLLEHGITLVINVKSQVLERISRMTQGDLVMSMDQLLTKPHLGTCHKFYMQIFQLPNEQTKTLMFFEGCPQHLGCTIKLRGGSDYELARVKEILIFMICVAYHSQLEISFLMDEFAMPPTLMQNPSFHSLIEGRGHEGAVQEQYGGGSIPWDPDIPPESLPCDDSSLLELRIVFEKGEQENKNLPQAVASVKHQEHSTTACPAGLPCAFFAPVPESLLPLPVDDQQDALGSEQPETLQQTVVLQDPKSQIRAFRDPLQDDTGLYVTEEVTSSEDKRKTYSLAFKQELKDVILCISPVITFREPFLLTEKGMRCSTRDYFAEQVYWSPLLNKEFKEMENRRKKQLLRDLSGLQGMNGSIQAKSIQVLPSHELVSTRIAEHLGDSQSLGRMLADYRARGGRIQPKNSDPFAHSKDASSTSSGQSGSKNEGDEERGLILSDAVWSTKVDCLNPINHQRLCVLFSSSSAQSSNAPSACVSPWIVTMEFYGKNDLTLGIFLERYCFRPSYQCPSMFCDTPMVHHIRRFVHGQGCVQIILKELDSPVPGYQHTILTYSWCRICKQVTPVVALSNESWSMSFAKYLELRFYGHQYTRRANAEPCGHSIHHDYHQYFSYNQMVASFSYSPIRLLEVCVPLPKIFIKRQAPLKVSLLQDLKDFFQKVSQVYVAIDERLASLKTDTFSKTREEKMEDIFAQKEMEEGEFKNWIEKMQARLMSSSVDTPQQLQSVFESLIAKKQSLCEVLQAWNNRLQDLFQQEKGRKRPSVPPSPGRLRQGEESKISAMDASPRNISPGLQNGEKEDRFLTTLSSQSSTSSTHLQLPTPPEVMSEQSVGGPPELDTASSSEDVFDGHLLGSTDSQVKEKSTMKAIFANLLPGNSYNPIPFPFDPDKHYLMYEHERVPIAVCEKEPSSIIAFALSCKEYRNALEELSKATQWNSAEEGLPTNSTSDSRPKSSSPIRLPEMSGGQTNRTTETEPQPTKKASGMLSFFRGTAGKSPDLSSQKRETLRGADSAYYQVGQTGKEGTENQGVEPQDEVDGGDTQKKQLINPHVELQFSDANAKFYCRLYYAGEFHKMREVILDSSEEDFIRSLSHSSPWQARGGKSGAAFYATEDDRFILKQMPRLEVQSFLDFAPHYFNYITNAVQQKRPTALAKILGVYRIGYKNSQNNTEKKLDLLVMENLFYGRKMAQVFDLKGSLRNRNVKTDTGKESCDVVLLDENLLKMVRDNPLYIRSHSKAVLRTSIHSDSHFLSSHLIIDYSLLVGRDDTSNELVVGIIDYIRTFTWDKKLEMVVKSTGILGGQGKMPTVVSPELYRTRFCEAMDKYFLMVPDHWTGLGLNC

Compound	IC50 [µM]
Cc1cccc(-c2ccn(-c3cc(N4CCOCC4)n4nc(C(=O)N[C@H]5CCN(C)C5)cc4n3)n2)c1 [Compound 48, N-[(3S)-1-methylpyrrolidin-3-yl]-7-morpholino-5-[3-(m-tolyl)pyrazol-1-yl]pyrazolo[1,5-a]pyrimidine-2-carboxamide]	0.0413
Cc1cccc(-c2ccn(-c3cc(N4CCOCC4)n4nc(C(=O)N[C@@H]5CCN(C)C5)cc4n3)n2)c1 [Compound 49, N-[(3R)-1-methylpyrrolidin-3-yl]-7-morpholino-5-[3-(m-tolyl)pyrazol-1-yl]pyrazolo[1,5-a]pyrimidine-2-carboxamide]	0.112
Cc1cccc(-c2ccn(-c3cc(N4CCOCC4)n4nc(C(=O)N[C@H]5CCOC5)cc4n3)n2)c1 [Compound 50, 7-morpholino-5-[3-(m-tolyl)pyrazol-1-yl]-N-[(3S)-tetrahydrofuran-3-yl]pyrazolo[1,5-a]pyrimidine-2-carboxamide]	0.0184
Cc1cccc(-c2ccn(-c3cc(N4CCOCC4)n4nc(C(=O)N[C@@H]5CCOC5)cc4n3)n2)c1 [Compound 51, 7-morpholino-5-[3-(m-tolyl)pyrazol-1-yl]-N-[(3R)-tetrahydrofuran-3-yl]pyrazolo[1,5-a]pyrimidine-2-carboxamide]	0.0647
Cc1cccc(-c2ccn(-c3cc(N4CCOCC4)n4nc(C(=O)N[C@@H]5CCCN(C)C5)cc4n3)n2)c1 [Compound 52, N-[(3R)-1-methyl-3-piperidyl]-7-morpholino-5-[3-(m-tolyl)pyrazol-1-yl]pyrazolo[1,5-a]pyrimidine-2-carboxamide]	0.0284
Cc1cccc(-c2ccn(-c3cc(N4CCOCC4)n4nc(C(=O)N[C@H]5CCCN(C)C5)cc4n3)n2)c1 [Compound 53, N-[(3S)-1-methyl-3-piperidyl]-7-morpholino-5-[3-(m-tolyl)pyrazol-1-yl]pyrazolo[1,5-a]pyrimidine-2-carboxamide]	0.0268
Cc1cccc(-c2ccn(-c3cc(N4CCOCC4)n4nc(C(=O)NC5CCN(C)CC5)cc4n3)n2)c1 [Compound 54, N-(1-methyl-4-piperidyl)-7-morpholino-5-[3-(m-tolyl)pyrazol-1-yl]pyrazolo[1,5-a]pyrimidine-2-carboxamide]	0.126
Cc1cccc(-c2cnn(-c3cc(N4CCOCC4)n4nc(C(=O)NC5CCN(C)CC5)cc4n3)c2)c1 [Compound 55, N-(1-methyl-4-piperidyl)-7-morpholino-5-[4-(m-tolyl)pyrazol-1-yl]pyrazolo[1,5-a]pyrimidine-2-carboxamide]	6.42
Cc1cccc(-c2cnn(-c3cc(N4CCOCC4)n4nc(C(=O)NC5CCOCC5)cc4n3)c2)c1 [Compound 56, 7-morpholino-5-[4-(m-tolyl)pyrazol-1-yl]-N-tetrahydropyran-4-yl-pyrazolo[1,5-a]pyrimidine-2-carboxamide]	3.42
Cc1cccc(-c2cnn(-c3cc(N4CCOCC4)n4nc(-c5ccncn5)cc4n3)c2)c1 [Compound 57, 4-[5-[4-(m-tolyl)pyrazol-1-yl]-2-pyrimidin-4-yl-pyrazolo[1,5-a]pyrimidin-7-yl]morpholine]	3.75
Cc1cccc(-c2cnn(-c3cc(N4CCOCC4)n4nc(-c5cncnc5)cc4n3)c2)c1 [Compound 58, 4-[5-[4-(m-tolyl)pyrazol-1-yl]-2-pyrimidin-5-yl-pyrazolo[1,5-a]pyrimidin-7-yl]morpholine]	> 20
Cc1cccc(-c2cnn(-c3cc(N4CCOCC4)n4nc(-c5cccnc5N)cc4n3)c2)c1 [Compound 59, 3-[7-morpholino-5-[4-(m-tolyl)pyrazol-1-yl]pyrazolo[1,5-a]pyrimidin-2-yl]pyridin-2-amine]	> 20
Cc1cccc(-c2cnn(-c3cc(N4CCOCC4)n4nc(-c5cnc(N)nc5)cc4n3)c2)c1 [Compound 60, 5-[7-morpholino-5-[4-(m-tolyl)pyrazol-1-yl]pyrazolo[1,5-a]pyrimidin-2-yl]pyrimidin-2-amine]	6.12
Cc1cccc(-c2ccn(-c3cc(N4CCOCC4)n4nc(-c5ccn(C)n5)cc4n3)n2)c1 [Compound 61, 4-[2-(1-methylpyrazol-3-yl)-5-[3-(m-tolyl)pyrazol-1-yl]pyrazolo[1,5-a]pyrimidin-7-yl]morpholine]	0.0024
Cc1cccc(-c2ccn(-c3cc(N4CCOCC4)n4nc(-c5cc[nH]n5)cc4n3)n2)c1 [Compound 62, 4-[5-[3-(m-tolyl)pyrazol-1-yl]-2-(1H-pyrazol-3-yl)pyrazolo[1,5-a]pyrimidin-7-yl]morpholine]	0.0158
c1ccc(-c2ccn(-c3cc(N4CCOCC4)n4nc(-c5ncccn5)cc4n3)n2)cc1 [Compound 63, 4-[5-(3-phenylpyrazol-1-yl)-2-pyrimidin-2-yl-pyrazolo[1,5-a]pyrimidin-7-yl]morpholine]	0.693
c1ccc(-c2ccn(-c3cc(N4CCOCC4)n4nc(-c5cccnc5)cc4n3)n2)cc1 [Compound 64, 4-[5-(3-phenylpyrazol-1-yl)-2-(3-pyridyl)pyrazolo[1,5-a]pyrimidin-7-yl]morpholine]	0.0681
Cn1ccc(-c2cc3nc(-n4ccc(-c5ccccc5)n4)cc(N4CCOCC4)n3n2)n1 [Compound 66, 4-[2-(1-methylpyrazol-3-yl)-5-(3-phenylpyrazol-1-yl)pyrazolo[1,5-a]pyrimidin-7-yl]morpholine]	0.104
c1ccc(-c2ccn(-c3cc(N4CCOCC4)n4nc(-c5cc[nH]n5)cc4n3)n2)cc1 [Compound 67, 4-[5-(3-phenylpyrazol-1-yl)-2-(1H-pyrazol-3-yl)pyrazolo[1,5-a]pyrimidin-7-yl]morpholine]	0.261
c1ccc(-c2ccn(-c3cc(N4CCOCC4)n4nc(-c5ccncn5)cc4n3)n2)cc1 [Compound 68, 4-[5-(3-phenylpyrazol-1-yl)-2-pyrimidin-4-yl-pyrazolo[1,5-a]pyrimidin-7-yl]morpholine]	1.66
c1ccc(-c2ccn(-c3cc(N4CCOCC4)n4nc(-c5cncnc5)cc4n3)n2)cc1 [Compound 69, 4-[5-(3-phenylpyrazol-1-yl)-2-pyrimidin-5-yl-pyrazolo[1,5-a]pyrimidin-7-yl]morpholine]	0.752
Nc1ncccc1-c1cc2nc(-n3ccc(-c4ccccc4)n3)cc(N3CCOCC3)n2n1 [Compound 70, 3-[7-morpholino-5-(3-phenylpyrazol-1-yl)pyrazolo[1,5-a]pyrimidin-2-yl]pyridin-2-amine]	0.378
Nc1ncc(-c2cc3nc(-n4ccc(-c5ccccc5)n4)cc(N4CCOCC4)n3n2)cn1 [Compound 71, 5-[7-morpholino-5-(3-phenylpyrazol-1-yl)pyrazolo[1,5-a]pyrimidin-2-yl]pyrimidin-2-amine]	0.143
c1ccc(-c2ccn(-c3cc(N4CCOCC4)n4nc(-c5ccccn5)cc4n3)n2)cc1 [Compound 72, 4-[5-(3-phenylpyrazol-1-yl)-2-(2-pyridyl)pyrazolo[1,5-a]pyrimidin-7-yl]morpholine]	0.281
CC(C)NC(=O)c1cc2nc(-n3ccc(-c4ccccc4)n3)cc(N3CCOCC3)n2n1 [Compound 73, N-isopropyl-7-morpholino-5-(3-phenylpyrazol-1-yl)pyrazolo[1,5-a]pyrimidine-2-carboxamide]	0.335
C[C@@H](NC(=O)c1cc2nc(-n3ccc(-c4ccccc4)n3)cc(N3CCOCC3)n2n1)C1CC1 [Compound 74, N-[(1R)-1-cyclopropylethyl]-7-morpholino-5-(3-phenylpyrazol-1-yl)pyrazolo[1,5-a]pyrimidine-2-carboxamide]	0.353
C[C@H](NC(=O)c1cc2nc(-n3ccc(-c4ccccc4)n3)cc(N3CCOCC3)n2n1)C1CC1 [Compound 75, N-[(1S)-1-cyclopropylethyl]-7-morpholino-5-(3-phenylpyrazol-1-yl)pyrazolo[1,5-a]pyrimidine-2-carboxamide]	0.334
O=C(NCC1COC1)c1cc2nc(-n3ccc(-c4ccccc4)n3)cc(N3CCOCC3)n2n1 [Compound 76, 7-morpholino-N-(oxetan-3-ylmethyl)-5-(3-phenylpyrazol-1-yl)pyrazolo[1,5-a]pyrimidine-2-carboxamide]	1.59
O=C(NC1CCCC1)c1cc2nc(-n3ccc(-c4ccccc4)n3)cc(N3CCOCC3)n2n1 [Compound 77, N-cyclopentyl-7-morpholino-5-(3-phenylpyrazol-1-yl)pyrazolo[1,5-a]pyrimidine-2-carboxamide]	0.184
c1ccc(-c2cnn(-c3cc(N4CCOCC4)n4nc(-c5ccccn5)cc4n3)c2)cc1 [Compound 78, 4-[5-(4-phenylpyrazol-1-yl)-2-(2-pyridyl)pyrazolo[1,5-a]pyrimidin-7-yl]morpholine]	0.441
